# Measured values taken from ChEMBL document CHEMBL4014283, “Structural insights of SmKDAC8 inhibitors: Targeting Schistosoma epigenetics through a combined structure-based 3D QSAR, in vitro and synthesis strategy” (Bioorg Med Chem, 2017).
# Calls of active or inactive are those of the source. The calls are words filed in the database; no cut-off is given here.
# Legend:
# [1] = molecular target: Histone deacetylase 1 (Homo sapiens, UniProt Q13547); assay: Inhibition of full length human C-terminal FLAG/His-tagged KDAC1 expressed in baculovirus expression system at 30 uM using substrate A after 60 mins by microfluidic assay relative to control; conditions: 1 h, 30 µM
# Chain of Histone deacetylase 1 (Q13547 whole entry, the tested form may be a part): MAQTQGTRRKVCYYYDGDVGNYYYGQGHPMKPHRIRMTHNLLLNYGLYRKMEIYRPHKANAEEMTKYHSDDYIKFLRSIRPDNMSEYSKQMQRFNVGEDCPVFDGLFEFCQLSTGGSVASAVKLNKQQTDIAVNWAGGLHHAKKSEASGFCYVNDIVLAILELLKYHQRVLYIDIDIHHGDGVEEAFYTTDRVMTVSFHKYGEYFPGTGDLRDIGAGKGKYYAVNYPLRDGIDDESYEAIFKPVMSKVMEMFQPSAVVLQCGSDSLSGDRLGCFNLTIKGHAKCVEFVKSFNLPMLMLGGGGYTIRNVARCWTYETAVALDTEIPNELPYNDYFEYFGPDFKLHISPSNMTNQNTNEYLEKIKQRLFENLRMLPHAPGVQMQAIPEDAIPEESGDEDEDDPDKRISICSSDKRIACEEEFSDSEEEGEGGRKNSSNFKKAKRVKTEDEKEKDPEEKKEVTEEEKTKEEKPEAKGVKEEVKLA
# [2] = molecular target: Histone deacetylase 3/Nuclear receptor corepressor 2 (HDAC3/NCoR2) (Homo sapiens, UniProt O15379+Q9Y618); assay: (§1) Inhibition of full length human C-terminal His-tagged KDAC3/N-terminal GST-tagged human NCOR2 (395 to 489 residues) expressed in baculovirus expression system at 30 uM using FITC-p53 acetylated peptide as substrate after 60 mins by microfluidic assay; conditions: 1 h, 30 µM
# Chain of Histone deacetylase 3/Nuclear receptor corepressor 2 (HDAC3/NCoR2) (O15379 whole entry, the tested form may be a part): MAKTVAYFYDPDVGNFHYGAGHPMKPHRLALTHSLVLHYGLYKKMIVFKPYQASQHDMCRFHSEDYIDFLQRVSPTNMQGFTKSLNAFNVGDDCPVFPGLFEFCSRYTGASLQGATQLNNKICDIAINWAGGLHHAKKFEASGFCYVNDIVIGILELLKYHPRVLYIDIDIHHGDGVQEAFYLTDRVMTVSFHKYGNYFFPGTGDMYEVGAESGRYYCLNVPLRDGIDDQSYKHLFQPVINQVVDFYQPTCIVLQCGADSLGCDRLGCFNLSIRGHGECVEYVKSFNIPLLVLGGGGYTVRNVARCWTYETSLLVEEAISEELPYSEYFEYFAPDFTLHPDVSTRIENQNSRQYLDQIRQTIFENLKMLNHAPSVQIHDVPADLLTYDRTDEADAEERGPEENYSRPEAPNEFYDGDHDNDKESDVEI
# Chain of Histone deacetylase 3/Nuclear receptor corepressor 2 (HDAC3/NCoR2) (Q9Y618 whole entry, the tested form may be a part): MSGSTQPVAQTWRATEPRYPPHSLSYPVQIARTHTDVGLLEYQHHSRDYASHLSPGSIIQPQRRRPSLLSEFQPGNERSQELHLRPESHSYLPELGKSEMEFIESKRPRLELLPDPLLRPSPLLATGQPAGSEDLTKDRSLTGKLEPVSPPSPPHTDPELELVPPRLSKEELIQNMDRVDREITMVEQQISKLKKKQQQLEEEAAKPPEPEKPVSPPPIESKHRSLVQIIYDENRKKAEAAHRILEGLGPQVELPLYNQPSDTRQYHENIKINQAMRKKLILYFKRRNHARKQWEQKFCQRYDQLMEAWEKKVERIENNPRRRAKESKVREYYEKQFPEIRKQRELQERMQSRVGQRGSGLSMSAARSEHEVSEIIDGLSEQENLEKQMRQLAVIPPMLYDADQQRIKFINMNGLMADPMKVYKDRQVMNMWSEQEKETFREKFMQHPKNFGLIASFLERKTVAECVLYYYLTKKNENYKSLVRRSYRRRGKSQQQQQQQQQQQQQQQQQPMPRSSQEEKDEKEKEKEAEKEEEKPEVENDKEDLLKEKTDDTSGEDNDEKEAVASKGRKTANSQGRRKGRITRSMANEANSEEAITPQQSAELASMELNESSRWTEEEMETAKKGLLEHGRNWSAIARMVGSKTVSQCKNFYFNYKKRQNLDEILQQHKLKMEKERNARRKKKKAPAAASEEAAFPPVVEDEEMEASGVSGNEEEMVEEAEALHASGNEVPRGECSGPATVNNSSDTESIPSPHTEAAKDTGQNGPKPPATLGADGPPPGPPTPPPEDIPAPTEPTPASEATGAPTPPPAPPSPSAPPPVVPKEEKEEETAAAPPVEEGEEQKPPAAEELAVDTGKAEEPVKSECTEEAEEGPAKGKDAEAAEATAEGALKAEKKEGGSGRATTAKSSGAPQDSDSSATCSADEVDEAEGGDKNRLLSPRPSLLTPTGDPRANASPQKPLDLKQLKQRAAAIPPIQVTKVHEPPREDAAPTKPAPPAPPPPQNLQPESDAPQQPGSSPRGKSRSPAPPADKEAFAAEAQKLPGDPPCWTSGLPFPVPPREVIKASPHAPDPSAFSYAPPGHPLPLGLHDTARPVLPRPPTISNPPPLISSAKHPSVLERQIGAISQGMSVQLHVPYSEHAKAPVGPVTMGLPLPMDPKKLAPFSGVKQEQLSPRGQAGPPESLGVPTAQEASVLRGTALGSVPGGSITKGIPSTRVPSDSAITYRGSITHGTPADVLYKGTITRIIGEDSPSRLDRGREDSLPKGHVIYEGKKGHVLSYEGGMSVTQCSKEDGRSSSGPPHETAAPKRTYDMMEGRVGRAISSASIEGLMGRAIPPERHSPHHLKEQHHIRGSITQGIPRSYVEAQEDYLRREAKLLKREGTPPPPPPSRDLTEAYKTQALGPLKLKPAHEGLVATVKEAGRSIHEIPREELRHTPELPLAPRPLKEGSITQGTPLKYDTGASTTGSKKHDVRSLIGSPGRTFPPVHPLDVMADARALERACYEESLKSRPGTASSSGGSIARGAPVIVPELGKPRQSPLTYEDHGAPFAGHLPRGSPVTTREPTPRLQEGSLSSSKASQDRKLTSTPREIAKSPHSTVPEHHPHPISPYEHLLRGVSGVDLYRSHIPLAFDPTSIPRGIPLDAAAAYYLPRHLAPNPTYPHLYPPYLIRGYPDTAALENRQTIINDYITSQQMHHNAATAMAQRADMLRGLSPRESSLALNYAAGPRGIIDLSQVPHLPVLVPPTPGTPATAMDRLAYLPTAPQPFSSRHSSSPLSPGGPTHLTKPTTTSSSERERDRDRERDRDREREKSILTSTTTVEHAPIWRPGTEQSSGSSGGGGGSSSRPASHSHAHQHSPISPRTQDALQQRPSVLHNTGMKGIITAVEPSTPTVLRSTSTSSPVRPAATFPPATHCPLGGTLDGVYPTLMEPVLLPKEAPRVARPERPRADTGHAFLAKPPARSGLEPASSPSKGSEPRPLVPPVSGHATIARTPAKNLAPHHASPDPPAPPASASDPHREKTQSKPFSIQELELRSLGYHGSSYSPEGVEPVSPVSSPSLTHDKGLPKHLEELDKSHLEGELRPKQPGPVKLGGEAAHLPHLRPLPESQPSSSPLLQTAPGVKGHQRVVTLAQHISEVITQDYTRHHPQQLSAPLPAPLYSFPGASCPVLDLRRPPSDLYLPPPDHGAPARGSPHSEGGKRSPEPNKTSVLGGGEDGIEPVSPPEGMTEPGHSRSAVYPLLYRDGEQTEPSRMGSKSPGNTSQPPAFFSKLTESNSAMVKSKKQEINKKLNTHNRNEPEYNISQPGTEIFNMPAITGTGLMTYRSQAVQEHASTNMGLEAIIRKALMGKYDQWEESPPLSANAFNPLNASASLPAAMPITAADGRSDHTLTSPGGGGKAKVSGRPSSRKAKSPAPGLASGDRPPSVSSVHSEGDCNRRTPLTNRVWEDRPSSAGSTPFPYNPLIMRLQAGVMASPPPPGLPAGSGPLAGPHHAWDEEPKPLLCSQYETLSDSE
# [3] = molecular target: T1, Protein deacetylase HDAC6 (Homo sapiens, UniProt Q9UBN7); assay: Inhibition of human KDAC6 expressed in baculovirus expression system at 30 uM using FITC-Histone 4 acetylated peptide as substrate after 60 mins by microfluidic assay; conditions: 1 h, 30 µM
# T1 sequence (Q9UBN7 whole entry): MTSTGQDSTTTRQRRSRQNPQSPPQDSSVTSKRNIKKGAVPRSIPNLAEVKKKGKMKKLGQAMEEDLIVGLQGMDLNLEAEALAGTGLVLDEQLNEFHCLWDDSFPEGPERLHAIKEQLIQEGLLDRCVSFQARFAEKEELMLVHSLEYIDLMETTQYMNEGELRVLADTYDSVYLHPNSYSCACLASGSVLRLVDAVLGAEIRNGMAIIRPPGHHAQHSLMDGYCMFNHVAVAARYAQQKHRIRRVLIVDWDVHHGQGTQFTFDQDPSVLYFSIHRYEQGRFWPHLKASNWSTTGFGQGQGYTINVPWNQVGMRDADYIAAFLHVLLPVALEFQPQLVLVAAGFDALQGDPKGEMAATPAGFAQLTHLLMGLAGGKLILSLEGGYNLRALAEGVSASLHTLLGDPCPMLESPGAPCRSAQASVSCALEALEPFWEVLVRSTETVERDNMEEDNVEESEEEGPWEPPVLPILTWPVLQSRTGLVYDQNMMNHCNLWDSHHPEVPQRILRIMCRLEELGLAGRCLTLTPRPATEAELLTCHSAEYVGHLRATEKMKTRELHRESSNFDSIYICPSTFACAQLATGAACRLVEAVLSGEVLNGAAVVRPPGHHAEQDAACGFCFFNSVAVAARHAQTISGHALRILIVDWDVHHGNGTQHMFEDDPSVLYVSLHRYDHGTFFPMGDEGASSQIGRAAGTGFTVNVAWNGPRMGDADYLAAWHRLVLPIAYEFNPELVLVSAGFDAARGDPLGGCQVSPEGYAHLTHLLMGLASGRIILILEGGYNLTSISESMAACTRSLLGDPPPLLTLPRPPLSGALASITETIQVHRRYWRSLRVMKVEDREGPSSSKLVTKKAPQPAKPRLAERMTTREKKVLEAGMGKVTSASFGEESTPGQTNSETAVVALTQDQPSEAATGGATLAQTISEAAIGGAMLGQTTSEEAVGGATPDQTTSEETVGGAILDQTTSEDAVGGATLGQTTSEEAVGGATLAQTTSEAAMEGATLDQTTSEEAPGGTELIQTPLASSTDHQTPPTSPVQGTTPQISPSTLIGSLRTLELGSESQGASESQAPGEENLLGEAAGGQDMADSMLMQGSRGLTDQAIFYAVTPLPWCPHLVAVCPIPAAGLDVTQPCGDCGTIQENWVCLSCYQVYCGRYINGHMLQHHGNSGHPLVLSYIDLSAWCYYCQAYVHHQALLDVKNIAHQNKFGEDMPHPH
# [4] = molecular target: T2, Histone deacetylase 8 (Homo sapiens, UniProt Q9BY41); assay: Inhibition of full length human C-terminal His-tagged KDAC8 expressed in baculovirus expression system at 30 uM using (FAM)-labeled peptide as substrate after 60 mins by microfluidic assay relative to control; conditions: 1 h, 30 µM
# T2 sequence (Q9BY41 whole entry): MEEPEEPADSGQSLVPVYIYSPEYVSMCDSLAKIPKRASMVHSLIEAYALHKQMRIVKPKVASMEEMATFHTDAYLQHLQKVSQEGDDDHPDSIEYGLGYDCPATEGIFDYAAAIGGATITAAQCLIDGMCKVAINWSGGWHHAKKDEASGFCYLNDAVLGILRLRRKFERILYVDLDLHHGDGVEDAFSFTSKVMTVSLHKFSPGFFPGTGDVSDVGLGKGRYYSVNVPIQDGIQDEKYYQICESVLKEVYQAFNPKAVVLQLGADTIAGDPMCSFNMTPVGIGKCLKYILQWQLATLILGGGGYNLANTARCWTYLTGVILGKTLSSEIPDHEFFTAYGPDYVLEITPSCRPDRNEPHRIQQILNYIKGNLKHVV
# [5] = molecular target: T3, Histone deacetylase 8 (Schistosoma mansoni) (UniProt A5H660); assay: Inhibition of Schistosoma mansoni KDAC8 at 30 uM using (FAM)-labeled peptide as substrate after 60 mins by microfluidic assay
# T3 sequence (whole entry): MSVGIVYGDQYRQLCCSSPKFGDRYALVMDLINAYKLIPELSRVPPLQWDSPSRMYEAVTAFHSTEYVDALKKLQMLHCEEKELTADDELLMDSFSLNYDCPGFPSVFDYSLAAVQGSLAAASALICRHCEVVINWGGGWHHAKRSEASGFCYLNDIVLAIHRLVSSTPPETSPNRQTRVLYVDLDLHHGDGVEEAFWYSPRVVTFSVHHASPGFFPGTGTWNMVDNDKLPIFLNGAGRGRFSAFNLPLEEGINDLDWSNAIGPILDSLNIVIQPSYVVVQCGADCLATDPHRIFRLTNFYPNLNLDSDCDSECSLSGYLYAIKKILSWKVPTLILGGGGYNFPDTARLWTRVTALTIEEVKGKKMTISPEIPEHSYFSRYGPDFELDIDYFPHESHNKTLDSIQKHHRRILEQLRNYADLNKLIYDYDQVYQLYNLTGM
# [6] = molecular target: KDAC3/NCOR2 (histone deacetylase 3/nuclear receptor corepressor 2 complex) (Homo sapiens, UniProt O15379); assay: as §1; conditions: probe FITC-p53 acetylated peptide
# Chain of KDAC3/NCOR2 (histone deacetylase 3/nuclear receptor corepressor 2 complex) (O15379 whole entry): as the sequence (O15379 whole entry, the tested form may be a part) above
# Chain of KDAC3/NCOR2 (histone deacetylase 3/nuclear receptor corepressor 2 complex) (Q9Y618 whole entry, further chain): as the sequence (Q9Y618 whole entry, the tested form may be a part) above
# [7] = molecular target: T4, Histone deacetylase 8 (Schistosoma mansoni, UniProt A5H660); assay: Inhibition of Schistosoma mansoni KDAC8 using (FAM)-labeled peptide as substrate after 60 mins by microfluidic assay; conditions: read-out: IC50
# T4 sequence (A5H660 whole entry): T3 sequence (whole entry)
SMILES,inhibition (INH) [1],inhibition (INH) [2],inhibition (INH) [3],inhibition (INH) [4],inhibition [5],"inhibition at 1 h, 30 µM [6] [%]",IC50 [7] [µM]
CCOP(=O)(OCC)/C(C#N)=C/c1ccc([N+](=O)[O-])cc1,Not Active,Not Active,Not Active,Not Active,2%,,
COC(=O)C(=Cc1ccccc1[N+](=O)[O-])C(=O)OC,Not Active,,Not Active,Not Active,3%,3,
NC(=O)c1ccccc1OCC(=O)Nc1ccc(Cl)c(Cl)c1,Not Active,,Not Active,Not Active,2%,6,
Nc1ccccc1Sc1cc(Cl)nnc1Cl,Not Active,Not Active,Not Active,Not Active,inactive,,
NS(=O)(=O)c1ccc(Nc2ccccc2)c([N+](=O)[O-])c1,Not Active,,Not Active,Not Active,12%,1,
Cc1cc(NC(=O)Nc2cc(F)ccc2F)no1,Not Active,Not Active,Not Active,Not Active,inactive,,
Cc1ccc(Nc2nnc(S)s2)cc1F,Not Active,,Not Active,Not Active,8%,2,
CCOC(=O)C1=C(N)N=C(N)C1=Nc1ccc(OC)cc1,Not Active,,Not Active,Not Active,inactive,7,
COC(=O)CCCCN1C(=O)[C@H](Cc2cncn2C(c2ccccc2)(c2ccccc2)c2ccccc2)N=C(c2ccccc2)c2ccccc21,,,,,2.5%,,> 30
O=C1Nc2ccccc2C(c2ccccc2)=N[C@H]1Cc1cn(C(c2ccccc2)(c2ccccc2)c2ccccc2)cn1,,,,,9.68%,,> 30
Cc1c(C)c(S(=O)(=O)NC(=N)NCCC[C@@H]2N=C(c3ccccc3)c3ccccc3N(CCCCC(=O)O)C2=O)c(C)c2c1OC(C)(C)C2,,,,,0%,,> 30
O=C(CCCCN1C(=O)[C@H](Cc2ccccc2)N=C(c2ccccc2)c2ccccc21)NO,,,,,14.4%,,> 30
N=C(N)NCCC[C@@H]1N=C(c2ccccc2)c2ccccc2N(CCCCC(=O)NO)C1=O,,,,,23.5%,,> 30
COC(=O)CCCCN1C(=O)[C@H](CC(=O)NC(c2ccccc2)(c2ccccc2)c2ccccc2)N=C(c2ccccc2)c2ccccc21,,,,,2.19%,,> 30
CC(C)(C)Oc1ccc(C[C@@H]2N=C(c3ccccc3)c3ccccc3NC2=O)cc1,,,,,0%,,> 30
O=C(CCCCN1C(=O)[C@H](CO)N=C(c2ccccc2)c2ccccc21)NO,,,,,0.46%,,> 30
O=C(O)C[C@@H]1N=C(c2ccccc2)c2ccccc2N(CCCCC(=O)NO)C1=O,,,,,12.4%,,> 30
CC(C)[C@@H]1N=C(c2ccccc2)c2ccccc2N(CCCCC(=O)NO)C1=O,,,,,20.6%,,> 30
NC(=O)C[C@@H]1N=C(c2ccccc2)c2ccccc2N(CCCCC(=O)NO)C1=O,,,,,0%,,> 30

SMILES,inhibition (INH) [1],inhibition (INH) [2],inhibition (INH) [3],inhibition (INH) [4],inhibition [5],"inhibition at 1 h, 30 µM [6] [%]",IC50 [7] [µM]
O=C(CCCNC(=O)CC[C@@H]1N=C(c2ccccc2)c2ccccc2NC1=O)NO,,,,,81.7%,,6.53
CC(C)(C)OC(=O)NCCCC[C@@H]1N=C(c2ccccc2)c2ccccc2NC1=O,,,,,0%,,> 30
CC(C)(C)SC[C@H]1N=C(c2ccccc2)c2ccccc2N(CCCCC(=O)NO)C1=O,,,,,18.5%,,> 30
CC[C@H](C)[C@@H]1N=C(c2ccccc2)c2ccccc2N(CCCCC(=O)OC)C1=O,,,,,0%,,> 30
CC(C)[C@@H]1N=C(c2ccccc2)c2ccccc2NC1=O,,,,,0%,,> 30
C[C@H](OCc1ccccc1)[C@@H]1N=C(c2ccccc2)c2ccccc2N(CCCCC(=O)O)C1=O,,,,,0%,,> 30
O=C(O)CCCCN1C(=O)[C@H](Cc2cncn2C(c2ccccc2)(c2ccccc2)c2ccccc2)N=C(c2ccccc2)c2ccccc21,,,,,0%,,> 30
C=CCN=C(S)Nc1cccc([N+](=O)[O-])c1,Not Active,,Not Active,Not Active,2%,3,
CC[C@H](C)[C@@H]1N=C(c2ccccc2)c2ccccc2NC1=O,,,,,0%,,> 30
O=C(CCCCN1C(=O)[C@H](Cc2cc3ccccc3[nH]2)N=C(c2ccccc2)c2ccccc21)NO,,,,,19.7%,,> 30
COC(=O)CCCCN1C(=O)[C@H]([C@@H](C)OCc2ccccc2)N=C(c2ccccc2)c2ccccc21,,,,,0%,,> 30
CSCC[C@@H]1N=C(c2ccccc2)c2ccccc2N(CCCCC(=O)NO)C1=O,,,,,19.3%,,> 30
COC(=O)CCCCN1C(=O)[C@H](Cc2ccc(OC(C)(C)C)cc2)N=C(c2ccccc2)c2ccccc21,,,,,0%,,> 30
Cc1c(C)c(S(=O)(=O)NC(=N)NCCC[C@@H]2N=C(c3ccccc3)c3ccccc3NC2=O)c(C)c2c1OC(C)(C)C2,,,,,0%,,> 30
COC(=O)CCCCN1C(=O)[C@H](CCCNC(=N)NS(=O)(=O)c2c(C)c(C)c3c(c2C)CC(C)(C)O3)N=C(c2ccccc2)c2ccccc21,,,,,0%,,> 30
CC(C)(C)OC(=O)C[C@@H]1N=C(c2ccccc2)c2ccccc2NC1=O,,,,,0%,,> 30
CC(C)(C)Oc1ccc(C[C@@H]2N=C(c3ccccc3)c3ccccc3N(CCCCC(=O)NO)C2=O)cc1,,,,,74%,,10.3
O=C(O)CCCCN1C(=O)CN=C(c2ccccc2)c2ccccc21,,,,,0%,,> 30
